Measurements from publication PMC9021288 (Nature Communications, 2022).
Several values for one entry are separate records, joined by “and”; a condition that tells them apart may be missing. Equal values may be shown once. Read-outs that look alike come from different tables or passages of the source.

How the values were obtained:
[1] = test system: P. falciparum NF54 asexual blood-stage parasites; assay: 72-h asexual blood-stage replication assay (SYBR Green); type: cell-based, Plasmodium falciparum; set-up: key to asexual blood stages growth, dose-response: % growth; DMSO control = 100%, DHA/epoxomicin-treated = no growth
Description: Replication assays were performed using a SYBR Green method as described previously. Briefly, asynchronous parasites were diluted to 0.83% parasitemia, 3% hematocrit in 30 µl medium, and added to 30 µl of diluted compounds in medium (0.1% DMSO final concentration) in black 384-wells plates. After a 72-h incubation, 30 µl of SYBR Green diluted in lysis buffer was added according to the manufacturer’s protocol (Life Technologies). Fluorescence intensity was measured on a BioTek Synergy 2 Plate Reader after 1-h incubation and was normalized to a DMSO control (100% growth) and DHA- or epoxomicin-treatment (no growth). […] Parasite survival was assessed by flow cytometry on an Accuri C6 (BD Biosciences) with BD C6 Plus software using SYBR Green and MitoTracker Deep Red FM (Life Technologies) as nuclear stain and vital dye, respectively, and data were analyzed using FlowJo (10.5.0). […] Luminescence was measured after 72 h using the Renilla-Glo(R) Luciferase Assay System (Promega E2750) and the GlomAX® Discover Multimode Microplate Reader (Promega). The luminescence values were normalized to DMSO vehicle (100% growth) and 200 nM chloroquine-treated (no growth) samples as controls.
Dose-response assays were analyzed by a nonlinear regression using a four-parameter model and the least squares method to find the best fit. One-way Analysis of variance (ANOVA) was performed using the Bonferroni’s Multiple Comparison Test. For the majority of experiments, 2-4 biological replicates were performed. Typically, 2 replicates were performed for screening activities, and a minimum of 3 replicates are performed for other experiments unless stated otherwise.

[2] = Blood concentration and PK in infected NSG mice after single oral dose; type: in vivo, mouse
Description: The effect of pantothenamides on P. falciparum Pf3D7^0087/N9 [66] in vivo was assessed in female NSG mice (NODscidIL2Rγ^null) at the Swiss Tropical and Public Health Institute (Basel, Switzerland) as described previously (Supplementary Table 30)[15],[67]. Briefly, humanized mice were engrafted daily with human erythrocyte suspensions from days -11 to day 6. After 11 days (day 0), mice were injected intravenously with 3×10^7 infected RBCs in a volume of 0.1 ml. On day 4, groups of n = 2 mice were treated with a single dose pantothenamides or chloroquine (50 mg/kg) by oral gavage. The hematocrit of all dosed mice and an untreated control group (n = 4 mice) was determined by fluorescence-activated cell sorting and parasitemia was analyzed by microscopy on >10,000 RBCs as described before. Samples to quantify compound metabolites were collected and prepared at different time points (1, 2, 4, 6, and 24 h after treatment) for each mouse by mixing 20 µl of whole blood with 20 µl of Milli-Q, followed by immediate freezing of samples on dry ice. […] Serial dilutions were prepared in the same solvent to concentrations 50 times higher than the corresponding CAL and QC concentrations. The concentrations were calculated under consideration of purity and salt factor. The spiking of the CAL and QC sample were performed at room temperature. The eight calibration levels were 5.00, 10.0, 50.0, 100, 500, 1000, 3750, and 5000 ng/mL and three QC levels 15.0, 100, and 3750 ng/mL were analyzed in duplicate, together with the study samples.
For the sample precipitation, to an aliquot of 10 µL mouse blood/water (1/1) study sample, 20 µL of acetonitrile containing the internal standard MMV1542001 at a concentration of 100 ng/mL was added. After vortex mixing, the samples were centrifuged for 10 min at 50,000 g at 8 °C. Subsequently, an aliquot of 20 µL of the supernatant was transferred to an autosampler vial and an aliquot of 5 µL was injected onto the LC-MS/MS system.
The samples were handled by an autosampler CTC PAL (CTC Analytics AG, Zwingen, Switzerland) set at 8 °C. The chromatography column used was a YMC Hydrosphere C18, 2.1 × 33 mm, 3 µm (YMC Co. Ltd., Kyoto, Japan), kept at room temperature. The aqueous mobile phase consisted of water containing 0.1 % formic acid, whereas the organic mobile phase consisted of acetonitrile containing 0.1 % formic acid, pumped by HPLC pump from Agilent 1200 series (Agilent Technologies Inc, Santa Clara, CA, USA). The HPLC gradient was as follows: 95% phase A, 5% phase B for 0.20 min, followed by transition to 5% phase A, 95% phase B in 1 min, 2 min at these concentrations, and a subsequent increase to 95% phase A, 5% phase B in 0.05 min which is kept for the remaining 0.75 min.
The detection of MMV693183 was performed using a TSQ Access mass spectrometer (Thermo Fisher Scientific, San Jose, CA, USA) by selected reaction monitoring. The ion source was heated electrospray ionization, using a negative polarity. Following parameters were used: Voltage 2500 [V], Vaporizer temperature 350 [°C], Sheath gas 60 [au], Auxiliary gas 5 [au], Capillary temperature 350 [°C] and Collision gas pressure 1.0 [mTorr]. […] The transition used for the internal standard was: parent ion 325.030 m/z—daughter ion 195.000 m/z.
The concentration of the analyte was calculated using the internal standardization method. The area ratio of analyte to internal standard against the concentration of calibration samples was used for quantification. The acquisition and processing of data were performed using LCquan 2.5.6 and Xcalibur 2.0.7. Microsoft Office Excel 2007 Prof was used for calculations and statistical evaluation of data. […] The Lower Limit of Quantification was 5.00 ng/mL in […], whereas The Upper Limit of Quantification was 5000 ng/mL in mouse blood/water (1/1).

Crystal screening (XRPD) = type: physicochemical; conditions: 36 conditions
Description: Crystal screening for each further characterized pantothenamide was performed by a commercial service (Crystal Pharmatech Co., Ltd.) under 36 conditions using a variety of crystallization methods, including liquid vapor diffusion, slow evaporation, slurry conversion and salt/co-crystal formation and solvents. X-ray power diffraction (XRPD) patterns were collected by Bruker X-ray powder diffractometers.

[3] = per replicate experiment, read-out: IC50, asexual blood stages
[4] = asexual blood stages NF54 parasites, read-out: IC50

SMILES | asexual blood stages growth, dose-response ([1]; Log concentration (M) -8.5) | asexual blood stages growth, dose-response ([1]; Log concentration (M) -9) | asexual blood stages growth, dose-response ([1]; Log concentration (M) -9.5) | asexual blood stages growth, dose-response ([1]; Log concentration (M) -10) | IC50 [1, 3] | AUC0-24h ([2]; 50 mg/kg p.o.) | Cmax ([2]; 50 mg/kg p.o.) | T1/2 ([2]; 50 mg/kg p.o.) | Tmax ([2]; 50 mg/kg p.o.) | concentration in blood ([2]; 1 h post treatment, per mouse) | concentration in blood ([2]; 2 h post treatment, per mouse) | concentration in blood ([2]; 4 h post treatment, per mouse) | concentration in blood ([2]; 6 h post treatment, per mouse) | concentration in blood ([2]; 24 h post treatment, per mouse) | Crystalline (Crystal screening (XRPD)) | asexual blood stages growth, dose-response ([1]; Log concentration (M) -7.5) | asexual blood stages growth, dose-response ([1]; Log concentration (M) -8) | IC50 [1, 4] | also measured
CC(C)(CO)[C@@H](O)C(=O)NCCNC(=O)c1cc(C#N)ccc1F [MMV976394] | 87.25 and 70.5 | 94.8 and 82.75 | 101.5 and 89.75 | 97.1 and 96.9 | 25 nM and 6.26 nM | 10800 ng·h/mL | 5810 ng/mL | 2.95 h | 1.00 h | 6840 ng/mL and 4780 ng/mL | 1230 ng/mL and 1500 ng/mL | 450 ng/mL and 356 ng/mL | 204 ng/mL and 214 ng/mL | 10 ng/mL | No | – | – | – | asexual blood stages growth, dose-response ([1]; Log concentration (M) -6): 3.4 and 4.05; asexual blood stages growth, dose-response ([1]; Log concentration (M) -6.5): 2.2 and 3.95
C[C@@H](CNC(=O)[C@H](O)C(C)(C)CO)NC(=O)c1cc(C#N)ccc1F [MMV693182] | 59.8 and 65.55 | 98.45 and 83.35 | 91.35 and 91.95 | 80.55 and 97.8 | 6.21 nM | – | – | – | – | 4180 ng/mL | 2200 ng/mL and 1000 ng/mL | 866 ng/mL | 266 ng/mL and 912 ng/mL | 10 ng/mL and 22.4 ng/mL | Yes | 14.55 and 11.25 | 38 and 38.5 | – | IC50 ([1]; Plasmodium falciparum, NF54, 72 h, 72-h asexual growth assay, range of independent experiments, read-out: Asexual blood stage IC50 range (N)): 6.2 to 7.5 nM; IC50 ([1]; Plasmodium falciparum, NF54, asexual blood stages NF54 parasites): 7.5 nM; IC50 ([1]; Plasmodium falciparum, NF54, per replicate experiment, read-out: IC50, asexual blood stages): 7.54 nM; concentration at 1 h ([2]; female, NSG (NODscidIL2Rγnull), mouse, whole blood, oral, 50 mg/kg, 1 h post treatment, per mouse): 6360 ng/mL; concentration at 4 h ([2]; female, NSG (NODscidIL2Rγnull), mouse, whole blood, oral, 50 mg/kg, 4 h post treatment, per mouse): 552 ng/mL; half-life ([2]; female, NSG (NODscidIL2Rγnull), mouse, whole blood, po, 50 mg/kg p.o.): 3.19 h; AUC(0 - t) ([2]; female, NSG (NODscidIL2Rγnull), mouse, whole blood, po, 50 mg/kg p.o., read-out: AUC0-24h): 15100 ng·h/mL; Cmax ([2]; female, NSG (NODscidIL2Rγnull), mouse, whole blood, po, 50 mg/kg p.o., read-out: Cmax): 5270 ng/mL; Tmax ([2]; female, NSG (NODscidIL2Rγnull), mouse, whole blood, po, 50 mg/kg p.o., read-out: Tmax): 1 h
CC(CNC(=O)C(O)C(C)(C)CO)NC(=O)CCc1ccccc1F (stereo in doubt) [MMV689258] | – | – | – | – | – | 6730 ng·h/mL | 3780 ng/mL | 3.26 h | 1.00 h | 3100 ng/mL and 4460 ng/mL | 1090 ng/mL and 698 ng/mL | 368 ng/mL and 236 ng/mL | 91.8 ng/mL and 110 ng/mL | 10 ng/mL | Yes | – | – | 7 nM | –
C[C@@H](CNC(=O)[C@H](O)C(C)(C)CO)NC(=O)c1cccc(F)c1 (stereo in doubt) [MMV1542001] | 33 and 19.45 | 66.7 and 78.5 | 89.15 and 95.45 | 79.7 and 90.9 | 2.45 nM and 1.87 nM | 11800 ng·h/mL | 5150 ng/mL | 2.80 h | 1.00 h | 4480 ng/mL and 5820 ng/mL | 1520 ng/mL and 1620 ng/mL | 492 ng/mL and 574 ng/mL | 314 ng/mL and 340 ng/mL | 10 ng/mL | No | – | – | 2.4 nM | –
C[C@@H](CNC(=O)[C@H](O)C(C)(C)CO)NC(=O)c1cccc(C#N)c1 (stereo in doubt) [MMV884962] | 80.1 and 73.8 | 84.85 and 73.05 | 95.6 and 92.6 | 93.15 and 89.75 | 12.1 nM and 7.41 nM | 8650 ng·h/mL | 3920 ng/mL | 3.32 h | 1.00 h | 3920 ng/mL | 1180 ng/mL and 1170 ng/mL | 468 ng/mL and 370 ng/mL | 222 ng/mL and 193 ng/mL | 13 ng/mL and 10 ng/mL | No | 11.25 and 6.6 | 55.2 and 32.3 | 7.4 nM | asexual blood stages growth, dose-response ([1]; Log concentration (M) -7): 1.15 and 1.45
